Measured values: patent US9999609B2, “Methods for treating or preventing fatigue” (SK Biopharmaceuticals Co., Ltd., priority 2009, dated 2018)

Experiments:
Format in all cases: in vivo
[1] = test system: male adult Sprague Dawley rats; experiment: Sleep-wake organization (EEG/EOG/EMG) in rats after acute i.p. administration; settings: rats, mean ± s.e.m of 8 rats; for Duration Active wake / Duration Deep sleep / Duration Intemediate stage / Duration Light sleep / Duration Passive wake / Duration REM sleep: 16 h recording
[2] = test system: hypocretin cell ablated narcoleptic mice (prepororexin/ataxin-3 transgenic) and their littermate wild-type mice; experiment: Sleep parameters (EEG/EMG polygraph) in narcoleptic and wild-type mice after oral dosing
Description: The polygraph signal (EEG and EMG) was captured with SleepSign (Kissei Comtech), and the sleep stage was visually scored with 10 sec epoch for wakefulness, non-REM sleep and REM sleep. Scoring criteria are: Wakefulness is characterized by desynchronized low-amplitude, mixed frequency (>4 Hz) EEG and high EMG activity. Rhythmic alpha (8-9 Hz) wave (with high EMG activities) may also appear. Non-REM is characterized by synchronized, high-amplitude, low-frequency (0.25-4 Hz) with reduced EMG activity (compared to wakefulness). EEG activity in REM sleep is similar to that in wakefulness, with desynchronized, mixed frequency low amplitude waves. Rhythmic alpha (8-9 Hz) wave with reduced EMG activities may also appear. […] is reduced even further and in many cases, completely absent. Same muscle twitching may be apparent in the EMG trace during REM sleep.
Three drug doses of the test compound (50, 100 and 150 mg/kg PO) plus vehicle, were orally administered at ZT 2 (2 hours after light on) or ZT14 (2 hours after light off), and the effects on sleep were monitored for 6 hours after the drug administration (the sleep data was collected for 30 hours after the drug injection, and are available for further analysis). The doses for modafinil were 50 and 200 mg/kg PO (plus vehicle), and modafinil was also administered at ZT 2 and […]
If the polygraph signals of some mice were not sufficient to score the sleep stage with accuracy (especially bad EMG), data from these animals were excluded, and the minimum of 5 animals (except for the highest dose of the test compound in wild-type mice in dark period, n=4) were included for the data analysis and number of animals were indicated in the figures.
Effects of test compound and modafinil on the amount of wake, non-REM sleep, REM sleep (cumulative seconds), number of episodes for each sleep stage during 6 hours, and mean wake/sleep-bout lengths (seconds) were analyzed in each animal and the mean of each parameter was calculated in each genotype. The effects of compounds on wake and sleep amounts are useful to evaluate the wake promoting potency, and the number of episodes for each sloop stage and the mean wake/sleep bout length are parameters for evaluating the sleep fragmentation. Amphetamine and modafinil, two main wake-promoting compounds currently used for the treatment of EDS associated with various etiologies (narcolepsy, idiopathic hypersomnia and secondary EDS), are known to increase wake time and prolong wake bout length in normal and EDS conditions.
A comparison of the effects between hypocretin deficient and wild-type mice is very useful in determining the wake-promotion of the test compound is dependent on the availability of hypocretins, and if there is a possible change in the sensitivity of the receptive mechanisms of test compound in narcoleptic mice due to the hypocretin ligand deficiency.

[3] = test system: adult human subjects with moderate or severe major depression without psychotic features; experiment: Randomized double-blind placebo- and active-controlled 6-week study in major depression; settings: 20 mg/day
Description: This was a randomized, double-blind, parallel-group, active, and placebo-controlled, multicenter study conducted in the U.S. (23 centers) and Canada (4 centers). There were 2 phases: a pretreatment phase (screening/washout and a baseline visit) and a 6-week, double-blind treatment phase. Paroxetine, a positive control, was included to evaluate assay sensitivity. After washout (if needed) of prohibited substances, subjects were randomly assigned (1:1:1:1) to receive the test compound titrated to a target dose of 200 mg/day or 400 mg/day, matching placebo, or a fixed dose (20 mg/day) of paroxetine. Study drug was given twice daily for 6 weeks. Efficacy and safety were assessed weekly during the double-blind phase. Subjects completing the study underwent an Exit Interview (“Your Health and Well-Being”) and completed an Assessment of Benefits of Clinical-trial Drug-treatment (ABCD) questionnaire (U.S. sites only).

[4] = test system: C57BL/6J, AKR/J and DBA/2J mice; experiment: Sleep onset and vigilance states in three inbred mouse strains after IP injection
Experimental: At least 7 adult male mice of inbred strains C57BL/6J, AKR/J, and DBA/2J were recorded in 2 sessions of 72 continuous hours. The first 24 h in each session are considered as baseline followed the next day by the saline injection and the next day by 150 mg/kg of the test compound in the first session and 5 mg/kg d-amphetamine in the second session. The two sessions were separated by 7 days (wash-out period) and all injections were intraperitoneal (IP) and performed at light onset (9 am) in a volume of 5 ml/kg.

## CC(N)Cc1ccccc1 (stereo not shown) [Amphetamine, amphetamine]
[1]; 1 mg/kg i.p.
  Duration Active wake: 382.4 ± 19.6 min
  Duration Deep sleep: 188.0 ± 19.6 min
  Duration Intemediate stage: 4.0 ± 19.6 min
  Duration Light sleep: 242.7 ± 19.6 min
  Duration Passive wake: 50.0 ± 19.6 min
  Duration REM sleep: 88.6 ± 19.6 min
  Latency ISWS: 140.6 ± 13.4 min
  Latency REM sleep: 208.6 ± 14.4 min
  Latency dSWS: 161.7 ± 5.3 min
  Shifts: Shift from ISWS to AW: 198.8 ± 50.1 number
  Shifts: Shift from ISWS to PW: 64.4 ± 30.5 number
  Shifts: Shift from REMS to AW: 66.5 ± 19.1 number
  Shifts: Shift from REMS to PW: 5.8 ± 4.8 number
  Shifts: Shift from dSWS to AW: 11.7 ± 7.2 number
  Shifts: Shift from dSWS to PW: 37.7 ± 30.0 number
[1]; 3 mg/kg i.p.
  Duration Active wake: 441.8 ± 15.7 min
  Duration Deep sleep: 207.6 ± 17.7 min
  Duration Intemediate stage: 4.0 ± 1.0 min
  Duration Light sleep: 187.9 ± 23.9 min
  Duration Passive wake: 43.5 ± 4.4 min
  Duration REM sleep: 71.4 ± 4.1 min
  Latency ISWS: 228.2 ± 25.0 min
  Latency REM sleep: 338.6 ± 24.3 min
  Latency dSWS: 242.0 ± 19.4 min
  Shifts: Shift from ISWS to AW: 178.7 ± 46.6 number
  Shifts: Shift from ISWS to PW: 62.4 ± 26.1 number
  Shifts: Shift from REMS to AW: 59.3 ± 17.8 number
  Shifts: Shift from REMS to PW: 3.3 ± 2.6 number
  Shifts: Shift from dSWS to AW: 14.8 ± 7.8 number
  Shifts: Shift from dSWS to PW: 26.6 ± 16.8 number
[1]; 10 mg/kg i.p.
  Duration Active wake: 498.7 ± 19.0 min
  Duration Deep sleep: 181.2 ± 22.0 min
  Duration Intemediate stage: 4.0 ± 1.0 min
  Duration Light sleep: 182.0 ± 26.3 min
  Duration Passive wake: 35.6 ± 4.7 min
  Duration REM sleep: 53.6 ± 5.0 min
  Latency ISWS: 284.7 ± 56.1 min
  Latency REM sleep: 440.8 ± 57.8 min
  Latency dSWS: 367.3 ± 5.5 min
  Shifts: Shift from ISWS to AW: 201.7 ± 66.1 number
  Shifts: Shift from ISWS to PW: 49.0 ± 25.5 number
  Shifts: Shift from REMS to AW: 50.0 ± 16.2 number
  Shifts: Shift from REMS to PW: 2.2 ± 1.9 number
  Shifts: Shift from dSWS to AW: 9.7 ± 5.9 number
  Shifts: Shift from dSWS to PW: 11.6 ± 8.9 number

## NC(=O)C[S+]([O-])C(c1ccccc1)c1ccccc1 (stereo not shown) [modafinil]
[2]; active (dark) period, ZT14, PO
  effect on wakefulness: dose-dependently increased wakefulness
[2]; active period, 200 mg/kg PO
  wake amount in narcoleptic mice relative to wild-type baseline: did not bring the wake amount to that of the wild-type baseline levels
[2]; resting period, PO
  dose of test compound whose wake promoting effect corresponds to 200 mg/kg of modafinil: ~50 mg/kg
  effect on REM sleep: did not strongly reduce REM sleep
[2]; resting period, wild-type and hypocretin-deficient narcoleptic mice, PO
  wake-promoting effects: modest

## Fc1ccc([C@@H]2CCNC[C@H]2COc2ccc3c(c2)OCO3)cc1 [paroxetine]
[3]; 6 weeks
  Insomnia, treatment-emergent adverse event incidence: 17%
[3]; post hoc analyses
  ABCD questionnaire items (of 51) with statistically significant superiority to placebo: 14 items

## C[C@H](N)Cc1ccccc1 [d-amphetamine]
[4]; 5 mg/kg IP
  amount of wakefulness compared with 150 mg/kg test compound: failed to induce the same amount of wakefulness as 150 mg/kg of test compound
  genotype effect on induced wakefulness (AK vs D2 mice): genotype-dependent effect
[4]; C57BL/6J mice, 1, 2, 4, 5, 8 mg/kg IP
  dose-response of induced wakefulness (sleep latency): dose-dependent manner between 1 and 5 mg/kg
